Experimental data taken from EPA's ToxValDB 9.5.
“And” between values parts separate entries of the source, which are not always exact repeats. Equal values may be shown once. One block for each molecule: values may come before it.

Legend:
Mus musculus [1] = test: LD10; higher = less toxic; details: acute; oral; BALB/cAnCr
Mus musculus [2] = details: acute; oral; BALB/cAnCr
Rattus norvegicus [3] = tested on: Rattus norvegicus
Oryctolagus sp. = details: duration: 13 days, oral, gavage, New Zealand
Gallus sp. [4] = details: subchronic; duration: 3 months; oral; capsule; Nervous system: Ataxia + Nervous system: Delayed neurotoxicity + Whole body: Decreased weight
Gallus sp. [5] = details: subchronic; duration: 90 days; oral; F; ataxia, delayed neurotoxicity and weight loss
Rattus norvegicus [6] = details: neurological
Rattus norvegicus [7] = test: FEL; higher = less toxic; details: reproduction developmental; duration: 54 days; oral; gavage; F; Wistar; generation: P0; P0: Whole Body: Mortality
Rattus norvegicus [8] = details: oral, gavage
[9] = developmental, duration: 10 days, oral, gavage, Crj:CD
[10] = developmental, duration: 54 days, M/F, Wistar, generation: F1, F1: Developmental: Whole Body: Dams with Stillborn Pups + F1: Developmental: Whole Body: External Abnormalities + F1: Developmental: Whole …
[11] = developmental, duration: 54 days, generation: F1, F1: Developmental: Whole Body: Dams with Liveborn Pups
[12] = reproduction developmental, duration: 28 days, M, Wistar, generation: P0, P0: Reproductive: Reproductive Organs: Reproductive Organ Histopathology + P0: Reproductive: Whole Body: Copulation Index
[13] = reproduction developmental, duration: 28 days, M, Wistar, generation: P0, P0: Whole Body: Copulation Index
[14] = reproduction developmental, duration: 54 days, F, Wistar, generation: P0, P0: Developmental: Uterus: Implantation + P0: General Toxicity: Whole Body: Clinical Observations + P0: General Toxicity: Whole Body: …
[15] = reproduction developmental, duration: 54 days, F, Wistar, generation: P0, P0: Reproductive: Reproductive Organs: Reproductive Organ Histopathology + P0: Reproductive: Whole Body: Copulation Index + P0: Reproductive…
[16] = reproduction developmental, duration: 54 days, F, Wistar, generation: P0, P0: Reproductive: Whole Body: Length of Gestation
[17] = reproduction developmental, duration: 54 days, F, Wistar, generation: P0, P0: Whole Body: Clinical Observations + P0: Whole Body: Maternal Body Weight + P0: Whole Body: Maternal Body Weight Change
[18] = reproduction developmental, duration: 54 days, F, Wistar, generation: P0, P0: Whole Body: Copulation Index
[19] = reproduction developmental, duration: 54 days, F, Wistar, generation: P0, P0: Whole Body: Length of Gestation + P0: Whole Body: Mortality
[20] = reproduction developmental, duration: 54 days, M/F, Wistar, generation: F1, F1: Whole Body: Litter Weight
[21] = short-term, duration: 28 days, M, Wistar, Adrenal: Adrenal Gland Histopathology + Dermal: Ruffled Fur + Liver: Liver Histopathology + Nerve: Nervous Tissue Histopathology + …
[22] = short-term, duration: 28 days, M, Wistar, Adrenal: Adrenal Gland Weight, Relative + Liver: Liver Weight, Absolute + Lung: Lung Histopathology + Lung: Respiration Distress + Thymus: …
[23] = short-term, duration: 28 days, M, Wistar, Endocrine: Adrenal: Adrenal Gland Histopathology + Endocrine: Adrenal: Adrenal Gland Weight, Absolute + Endocrine: Adrenal: Adrenal Gland …
[24] = short-term, duration: 28 days, M, Wistar, Other Systems: Eye: Ophthalmology + Other Systems: Lung: Lung Histopathology + Other Systems: Lung: Respiration Distress
[25] = subchronic, duration: 54 days, F, Wistar, Adrenal: Adrenal Gland Histopathology + Liver: Liver Histopathology + Nerve: Nervous Tissue Histopathology + Whole Body: Function …
[26] = subchronic, duration: 54 days, F, Wistar, Dermal: Ruffled Fur + Lung: Lung Histopathology + Lung: Respiration Distress + Peripheral Nervous System: Paresis + Thymus: Thymus …
[27] = subchronic, duration: 54 days, F, Wistar, Endocrine: Adrenal: Adrenal Gland Histopathology + Endocrine: Adrenal: Adrenal Gland Weight, Absolute + Endocrine: Adrenal: Adrenal Gland …
[28] = subchronic, duration: 54 days, F, Wistar, Other Systems: Eye: Ophthalmology + Other Systems: Lung: Lung Histopathology + Other Systems: Lung: Respiration Distress

Structure (SMILES): CNC=O [N-Methylformamide]
LD10 (Mus musculus [1]): 1800 mg/kg
LD50 (Mus musculus [2]): 2600 mg/kg
LD50 (Rattus norvegicus [3]; acute, oral): 4000 mg/kg
LOAEL (Rattus norvegicus [3]; [9]): 75 mg/kg-day
NOAEL (Rattus norvegicus [3]; [9]): 10 mg/kg-day
NOAEL (Rattus norvegicus [3]; reproduction developmental, duration: 10 days, inhalation, F, Crl: CD BR): 36.2 mg/m3
NOAEL (Rattus norvegicus [3]; short-term, duration: 2 weeks, inhalation, M, Crl:CD(SD)): 0.12 mg/L
LOAEL (Oryctolagus sp.; developmental): 50 mg/kg-day
NOAEL (Oryctolagus sp.; developmental): 10 mg/kg-day
LOAEL (Oryctolagus sp.; reproduction developmental, F): 50 mg/kg-day
NOAEL (Oryctolagus sp.; reproduction developmental, F): 10 mg/kg-day

Structure (SMILES): CCCCSP(=O)(SCCCC)SCCCC [Tribufos]
NOEL (Gallus sp. [4]): 0.1 mg/kg-day
LOAEL (Gallus sp. [5]): 0.5 mg/kg-day
NOEL (Gallus sp. [5]): 0.1 mg/kg-day
LC50 (Rattus norvegicus [3]; acute, Inhalation, Sprague-Dawley): ≥ 2460 mg/m3 and ≤ 4650 mg/m3
NOAEL (Rattus norvegicus [6]; reproduction developmental, duration: 364 days, oral, diet, M, Sprague-Dawley): 0.28 mg/kg-day
NOAEL (Rattus norvegicus [6]; subchronic, duration: 13 weeks, inhalation, head only, M/F, Wistar): 2.43 mg/m3

NEL (Rattus norvegicus [8]; reproduction developmental, duration: 28 days, M, Wistar, generation: P0, P0: Reproductive Organs: Reproductive Organ Histopathology): 125 mg/kg-day
LEL (Rattus norvegicus [8]; [13]): 125 mg/kg-day
NEL (Rattus norvegicus [8]; [13]): 100 mg/kg-day
NEL (Rattus norvegicus [8]; reproduction developmental, duration: 54 days, F, Wistar, generation: P0, P0: Reproductive Organs: Reproductive Organ Histopathology + P0: Whole Body: Fertility Index): 125 mg/kg-day
NEL (Rattus norvegicus [8]; reproduction developmental, duration: 54 days, F, Wistar, generation: P0, P0: Uterus: Implantation): 125 mg/kg-day
LEL (Rattus norvegicus [8]; [18]): 125 mg/kg-day
NEL (Rattus norvegicus [8]; [18]): 100 mg/kg-day
NEL (Rattus norvegicus [8]; reproduction developmental, duration: 54 days, M/F, Wistar, generation: F1, F1: Whole Body: Dams with Liveborn Pups): 125 mg/kg-day
NEL (Rattus norvegicus [8]; reproduction developmental, duration: 54 days, M/F, Wistar, generation: F1, F1: Whole Body: Dams with Stillborn Pups + F1: Whole Body: External Abnormalities + F1: Whole Body: Litter Size + F1: Whole Body: Male Pups …): 125 mg/kg-day
LEL (Rattus norvegicus [8]; [20]): 100 mg/kg-day
NEL (Rattus norvegicus [8]; [20]): 50 mg/kg-day
LEL (Rattus norvegicus [8]; [21]): 100 mg/kg-day
NEL (Rattus norvegicus [8]; [21]): 50 mg/kg-day
NEL (Rattus norvegicus [8]; short-term, duration: 28 days, M, Wistar, Adrenal: Adrenal Gland Weight, Absolute + Blood: Hematology, Unspecified + Eye: Ophthalmology, Unspecified + Kidney: Urinalysis, Unspecified…): 150 mg/kg-day
LEL (Rattus norvegicus [8]; [22]): 150 mg/kg-day
NEL (Rattus norvegicus [8]; [22]): 100 mg/kg-day
LEL (Rattus norvegicus [8]; [25]): 100 mg/kg-day
NEL (Rattus norvegicus [8]; [25]): 50 mg/kg-day
NEL (Rattus norvegicus [8]; subchronic, duration: 54 days, F, Wistar, Adrenal: Adrenal Gland Weight, Absolute + Adrenal: Adrenal Gland Weight, Relative + Blood: Hematology, Unspecified + Eye: Ophthalmology, …): 150 mg/kg-day
LEL (Rattus norvegicus [8]; [26]): 150 mg/kg-day
NEL (Rattus norvegicus [8]; [26]): 100 mg/kg-day
Structure (SMILES): CCO[Si](CCC(F)(F)C(F)(F)C(F)(F)C(F)(F)C(F)(F)C(F)(F)F)(OCC)OCC [Triethoxy((perfluorohexyl)ethyl)silane]
FEL (Rattus norvegicus [7]): 125 mg/kg-day
LOAEL (Rattus norvegicus [8]; [10]): 100 mg/kg-day
NOAEL (Rattus norvegicus [8]; [10]): 50 mg/kg-day
LOAEL (Rattus norvegicus [8]; [11]): 100 mg/kg-day
NOAEL (Rattus norvegicus [8]; [11]): 50 mg/kg-day
LOAEL (Rattus norvegicus [8]; [12]): 125 mg/kg-day
NOAEL (Rattus norvegicus [8]; [12]): 100 mg/kg-day
LOAEL (Rattus norvegicus [8]; [14]): 100 mg/kg-day
NOAEL (Rattus norvegicus [8]; [14]): 50 mg/kg-day
LOAEL (Rattus norvegicus [8]; [15]): 125 mg/kg-day
NOAEL (Rattus norvegicus [8]; [15]): 100 mg/kg-day
LOAEL (Rattus norvegicus [8]; [16]): 125 mg/kg-day
NOAEL (Rattus norvegicus [8]; [16]): 100 mg/kg-day
LEL (Rattus norvegicus [8]; [17]): 100 mg/kg-day
NEL (Rattus norvegicus [8]; [17]): 50 mg/kg-day
LEL (Rattus norvegicus [8]; [19]): 125 mg/kg-day
NEL (Rattus norvegicus [8]; [19]): 100 mg/kg-day
LOAEL (Rattus norvegicus [8]; [23]): 100 mg/kg-day
NOAEL (Rattus norvegicus [8]; [23]): 50 mg/kg-day
NOAEL (Rattus norvegicus [8]; short-term, duration: 28 days, M, Wistar, Hematologic: Blood: Hematology, Unspecified + Urinary: Kidney: Urinalysis): 125 mg/kg-day
LOAEL (Rattus norvegicus [8]; [24]): 125 mg/kg-day
NOAEL (Rattus norvegicus [8]; [24]): 100 mg/kg-day
LOAEL (Rattus norvegicus [8]; [27]): 100 mg/kg-day
NOAEL (Rattus norvegicus [8]; [27]): 50 mg/kg-day
NOAEL (Rattus norvegicus [8]; subchronic, duration: 54 days, F, Wistar, Hematologic: Blood: Hematology, Unspecified + Urinary: Kidney: Urinalysis): 125 mg/kg-day
LOAEL (Rattus norvegicus [8]; [28]): 125 mg/kg-day
NOAEL (Rattus norvegicus [8]; [28]): 100 mg/kg-day
LEL (Rattus norvegicus [8]; subchronic, duration: 54 days, F, Wistar, Whole Body: Maternal Body Weight): 50 mg/kg-day
